Laboratory results from patent US8557580B2, “Methods and compositions for the differentiation of stem cells” (Cellular Dynamics International, Inc., priority 2009, dated 2013).

Tested on: Individualized ES cells
Assay: Attachment and survival of individualized ES cells seeded in TeSR medium with or without ROCK inhibitor
Assay type: cell-based, human
Conditions: H1152 at 1 uM, fibronectin-coated surfaces
Method: Variations in input ES colony size and colony density can lead to substantial variability in performance of any differentiation method. Therefore, the dispersion of ES colonies into individual cells prior to initiating differentiation was investigated. Cultured populations of ES cells were dispersed or individualized with trypsin or TrypLE. Dispersed ES cells were then seeded in TeSR medium, with or without a ROCK inhibitor (H1152, 1 μM). Differentiation procedures described herein were performed with the individualized cultures.
Furthermore, if the seeding density is too low (less than approximately 1×10^4 cells per cm^2), cells detach and lose viability even in the presence of a ROCK inhibitor. If seeded at too high a cell density (greater than 5×10^4 cells per cm^2), cells remain attached, but fail to differentiate into hematoendothelial progenitors. The optimum seeding density between these limits is dependent on the method used for cell expansion, the passage number, and the overall condition of the ES cells.

Cc1cncc2cccc(S(=O)(=O)N3CCCNC[C@@H]3C)c12 [H1152]
attachment and survival of individualized ES cells: do not attach and survive without the addition of a survival factor
